Test results as given in the supplement of paper PMC10307832.

What was measured:
Test in all cases: relative viability (nuclei count vs DMSO), 5 days (fraction); higher = more cells survive
Trametinib + Decitabine = compound: CC(=O)Nc1cccc(-n2c(=O)n(C3CC3)c(=O)c3c(Nc4ccc(I)cc4F)n(C)c(=O)c(C)c32)c1 [Trametinib] + Nc1ncn([C@H]2C[C@H](O)[C@@H](CO)O2)c(=O)n1 [Decitabine] (partner 2 µM)
Summary of the method: (§1)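 Relative viability equals treated-well nuclei counts divided by vehicle-well nuclei counts. Counts came from 4× images of lung cancer cell lines grown in 1536-well plates for 5 days after pin-tool dosing on the day after seeding. Dosing used one drug alone or a fixed anchor-drug dose plus five library-drug doses (not always all listed) in √10 steps, and values are medians of duplicate plates.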

[1] = compound: CN1C=C(C2=CC=CC=C21)/C=C\3/C4=C(C=CC=N4)NC3=O + CS(=O)(=O)CCNCc1ccc(-c2ccc3ncnc(Nc4ccc(OCc5cccc(F)c5)c(Cl)c4)c3c2)o1 [Lapatinib] (partner 2 µM)
Summary of the method: as §1

Trametinib + Foretinib = compound: CC(=O)Nc1cccc(-n2c(=O)n(C3CC3)c(=O)c3c(Nc4ccc(I)cc4F)n(C)c(=O)c(C)c32)c1 [Trametinib] + COc1cc2c(Oc3ccc(NC(=O)C4(C(=O)Nc5ccc(F)cc5)CC4)cc3F)ccnc2cc1OCCCN1CCOCC1 [Foretinib] (partner 0.25 µM)
Summary of the method: as §1

Row | Cell Line | relative viability (Trametinib + Decitabine; first compound 0.0025 µM) | relative viability (Trametinib + Decitabine; first compound 0.007906 µM) | relative viability (Trametinib + Decitabine; first compound 0.025 µM) | relative viability (Trametinib + Decitabine; first compound 0.07906 µM) | relative viability (Trametinib + Decitabine; first compound 0.25 µM) | relative viability ([1]; first compound 0.02 µM) | relative viability ([1]; first compound 0.06325 µM) | relative viability ([1]; first compound 0.2 µM) | relative viability ([1]; first compound 0.6325 µM) | relative viability ([1]; first compound 2 µM) | relative viability (Trametinib + Foretinib; first compound 0.0025 µM) | relative viability (Trametinib + Foretinib; first compound 0.007906 µM) | relative viability (Trametinib + Foretinib; first compound 0.025 µM) | relative viability (Trametinib + Foretinib; first compound 0.07906 µM) | relative viability (Trametinib + Foretinib; first compound 0.25 µM)
1 | NCI-H522 | 0.783 | 0.602 | 0.678 | 0.64 | 0.672 |  |  |  |  |  |  |  |  |  | 
2 | NCI-H596 | 0.967 | 0.96 | 0.952 | 0.968 | 0.739 | 1.05 | 1.03 | 0.889 | 1.02 | 0.99 | 0.793 | 0.596 | 0.709 | 0.69 | 0.396
3 | NCI-H647 | 0.39 | 0.349 | 0.377 | 0.344 | 0.19 | 1.06 | 0.995 | 0.679 | 0.949 | 1.27 | 1.35 | 1.08 | 0.963 | 0.911 | 0.4
4 | NCI-H650 | 0.346 | 0.294 | 0.345 | 0.301 | 0.261 | 0.824 | 0.738 |  | 0.754 | 0.82 | 1.1 | 1.17 | 1.1 | 1.17 | 0.839
5 | NCI-H661 | 0.522 | 0.537 | 0.484 | 0.412 | 0.431 | 0.601 | 0.574 | 0.46 | 0.427 | 0.54 | 0.941 | 1 | 0.794 | 0.751 | 0.62
6 | NCI-H727 | 0.818 | 0.619 | 0.541 | 0.431 | 0.453 | 0.757 | 0.688 | 0.428 | 0.914 | 0.767 | 0.455 | 0.269 | 0.359 | 0.32 | 0.238
7 | NCI-H1299 |  |  |  |  |  | 0.979 | 0.974 | 0.989 | 1.03 | 0.979 | 1.07 | 1.2 | 1.01 | 0.794 | 0.481
8 | NCI-H1563 |  |  |  |  |  | 1.2 | 0.977 | 0.912 | 0.926 | 1.02 | 0.953 | 0.815 | 0.807 | 0.804 | 0.694
9 | NCI-H1623 |  |  |  |  |  |  |  |  |  |  | 0.782 | 0.591 | 0.532 | 0.437 | 0.727
10 | NCI-H1648 | 0.508 | 0.44 | 0.554 | 0.517 | 0.371 |  |  |  |  |  |  |  |  |  | 
11 | NCI-H1703 |  |  |  |  |  | 0.962 | 0.941 | 1.11 | 1.25 | 1.29 | 0.371 | 0.315 | 0.357 | 0.368 | 0.323
12 | NCI-H1792 | 0.436 | 0.443 | 0.318 | 0.364 | 0.291 | 0.588 | 0.96 | 0.8 |  | 0.672 |  |  |  |  | 
13 | NCI-H2228 |  |  |  |  |  | 1.24 | 0.88 |  | 1.02 | 0.972 | 0.911 | 0.761 | 0.811 | 0.571 | 0.4
14 | NCI-H2342 | 0.775 | 0.69 | 0.646 | 0.673 | 0.637 |  |  |  |  |  | 1.05 | 0.911 |  | 0.908 | 0.997
15 | SW 900 | 0.396 | 0.335 | 0.388 | 0.491 | 0.39 |  |  |  |  |  | 0.79 | 0.669 | 0.708 | 0.698 | 0.499
